Laboratory results from ChEMBL document CHEMBL1275576, “In vitro activity of tomopenem (CS-023/RO4908463) against anaerobic bacteria” (Antimicrob Agents Chemother, 2009).

What was measured:
Bacteroides fragilis [1] = test: Antimicrobial activity against Bacteroides fragilis GAI 10150 by agar dilution method in presence of 5% laked sheep blood; assay type: functional
[2] = tested on: Fusobacterium necrophorum; test: Antimicrobial activity against Fusobacterium necrophorum by agar dilution method in presence of 5% laked sheep blood; assay type: functional
Eggerthella lenta [3] = test: Antimicrobial activity against Eggerthella lenta by agar dilution method in presence of 5% laked sheep blood; assay type: functional
Fusobacterium nucleatum [4] = test: Antimicrobial activity against Fusobacterium nucleatum by agar dilution method in presence of 5% laked sheep blood; assay type: functional
[5] = tested on: Desulfovibrio desulfuricans; test: Antimicrobial activity against Desulfovibrio desulfuricans by agar dilution method in presence of 5% laked sheep blood; assay type: functional
Fusobacterium nucleatum [6] = test: Antimicrobial activity against Fusobacterium nucleatum ATCC 25586 by agar dilution method in presence of 5% laked sheep blood; assay type: functional
[7] = tested on: Porphyromonas asaccharolytica; test: Antimicrobial activity against Porphyromonas asaccharolyticus ATCC 25260 by agar dilution method in presence of 5% laked sheep blood; assay type: functional; settings: DSM 20707
Fusobacterium sp. = test: Antimicrobial activity against Fusobacterium sp. by agar dilution method in presence of 5% laked sheep blood; assay type: functional
Bacteroides uniformis [8] = test: Antimicrobial activity against Bacteroides uniformis by agar dilution method in presence of 5% laked sheep blood; assay type: functional
[9] = tested on: Parabacteroides distasonis; test: Antimicrobial activity against Parabacteroides distasonis by agar dilution method in presence of 5% laked sheep blood; assay type: functional
[10] = tested on: Limosilactobacillus reuteri; test: Antimicrobial activity against Lactobacillus reuteri JCM 1112 by agar dilution method in presence of 5% laked sheep blood; assay type: functional
Atopobium parvulum = test: Antimicrobial activity against Atopobium parvulum VPI 0546 by agar dilution method in presence of 5% laked sheep blood; assay type: functional; settings: Lancefieldella parvula
Parvimonas micra = test: Antimicrobial activity against Parvimonas micra by agar dilution method in presence of 5% laked sheep blood; assay type: functional
Bacteroides stercoris = test: Antimicrobial activity against Bacteroides stercoris by agar dilution method in presence of 5% laked sheep blood; assay type: functional
[11] = tested on: Streptococcus intermedius; test: Antimicrobial activity against Streptococcus intermedius ATCC 27335 by agar dilution method in presence of 5% laked sheep blood; assay type: functional
[12] = tested on: Bifidobacterium pseudolongum; test: Antimicrobial activity against Bifidobacterium pseudolongum ATCC 25526 by agar dilution method in presence of 5% laked sheep blood; assay type: functional
Bacteroides fragilis [13] = test: Antimicrobial activity against Bacteroides fragilis GAI 5562 by agar dilution method in presence of 5% laked sheep blood; assay type: functional
Eggerthella lenta [14] = test: Antimicrobial activity against Eggerthella lenta ATCC 25559 by agar dilution method in presence of 5% laked sheep blood; assay type: functional
Odoribacter splanchnicus = test: Antimicrobial activity against Odoribacter splanchnicus by agar dilution method in presence of 5% laked sheep blood; assay type: functional
Bacteroides fragilis [15] = test: Antimicrobial activity against Bacteroides fragilis by agar dilution method in presence of 5% laked sheep blood; assay type: functional
[16] = tested on: Peptoniphilus asaccharolyticus; test: Antimicrobial activity against Peptoniphilus asaccharolyticus WAL 3218 by agar dilution method in presence of 5% laked sheep blood; assay type: functional
Bacteroides caccae = test: Antimicrobial activity against Bacteroides caccae by agar dilution method in presence of 5% laked sheep blood; assay type: functional
Porphyromonas gingivalis = test: Antimicrobial activity against Porphyromonas gingivalis by agar dilution method in presence of 5% laked sheep blood; assay type: functional
Gemella morbillorum = test: Antimicrobial activity against Gemella morbillorum ATCC 27824 by agar dilution method in presence of 5% laked sheep blood; assay type: functional
[17] = Antimicrobial activity against Bifidobacterium longum subsp. longum ATCC 15707 by agar dilution method in presence of 5% laked sheep blood; assay type: functional
[18] = Antimicrobial activity against Desulfovibrio piger DSM 749 by agar dilution method in presence of 5% laked sheep blood; assay type: functional, Desulfovibrio piger ATCC 29098
Porphyromonas uenonis = test: Antimicrobial activity against Porphyromonas uenonis by agar dilution method in presence of 5% laked sheep blood; assay type: functional
Bifidobacterium breve = test: Antimicrobial activity against Bifidobacterium breve ATCC 15700 by agar dilution method in presence of 5% laked sheep blood; assay type: functional
Clostridioides difficile = test: Antimicrobial activity against Clostridium difficile by agar dilution method in presence of 5% laked sheep blood; assay type: functional
[19] = tested on: Paeniclostridium sordellii; test: Antimicrobial activity against Clostridium sordellii ATCC 9714 by agar dilution method in presence of 5% laked sheep blood; assay type: functional; settings: Paraclostridium sordellii
Clostridium perfringens = test: Antimicrobial activity against Clostridium perfringens ATCC 13124 by agar dilution method in presence of 5% laked sheep blood; assay type: functional
Bacteroides uniformis [20] = test: Antimicrobial activity against Bacteroides uniformis ATCC 8492 by agar dilution method in presence of 5% laked sheep blood; assay type: functional
[21] = tested on: Peptoniphilus asaccharolyticus; test: Antimicrobial activity against Peptoniphilus asaccharolyticus by agar dilution method in presence of 5% laked sheep blood; assay type: functional
[22] = Antimicrobial activity against Bifidobacterium adolescentis ATCC 15703 by agar dilution method in presence of 5% laked sheep blood; assay type: functional
Lactobacillus brevis = test: Antimicrobial activity against Lactobacillus brevis subsp. brevis JCM 1059 by agar dilution method in presence of 5% laked sheep blood; assay type: functional; settings: Levilactobacillus brevis
[23] = tested on: Bacteroides thetaiotaomicron; test: Antimicrobial activity against Bacteroides thetaiotaomicron by agar dilution method in presence of 5% laked sheep blood; assay type: functional
[24] = Antimicrobial activity against Veillonella dispar ATCC 17748 by agar dilution method in presence of 5% laked sheep blood; assay type: functional
[25] = tested on: Porphyromonas asaccharolytica; test: Antimicrobial activity against Porphyromonas asaccharolyticus by agar dilution method in presence of 5% laked sheep blood; assay type: functional
[26] = tested on: Peptostreptococcus anaerobius; test: Antimicrobial activity against Peptostreptococcus anaerobius by agar dilution method in presence of 5% laked sheep blood; assay type: functional
Eubacterium limosum = test: Antimicrobial activity against Eubacterium limosum by agar dilution method in presence of 5% laked sheep blood; assay type: functional
Prevotella denticola = test: Antimicrobial activity against Prevotella denticola GAI 5490 by agar dilution method in presence of 5% laked sheep blood; assay type: functional
Finegoldia magna = test: Antimicrobial activity against Finegoldia magna by agar dilution method in presence of 5% laked sheep blood; assay type: functional
Prevotella oris = test: Antimicrobial activity against Prevotella oris ATCC 33573 by agar dilution method in presence of 5% laked sheep blood; assay type: functional; settings: Segatella oris
[27] = tested on: Desulfovibrio desulfuricans; test: Antimicrobial activity against Desulfovibrio desulfuricans ATCC 29577 by agar dilution method in presence of 5% laked sheep blood; assay type: functional
[28] = tested on: Prevotella melaninogenica; test: Antimicrobial activity against Prevotella melaninogenica by agar dilution method in presence of 5% laked sheep blood; assay type: functional

## CC(=N)N1CC[C@H](SC2=C(C(=O)O)N3C(=O)[C@H]([C@@H](C)O)[C@H]3C2)C1
Bacteroides fragilis [1]
  MIC: 8 µg/mL
[2]
  MIC50: 0.125 µg/mL
  MIC90: 2 µg/mL
Eggerthella lenta [3]
  MIC50: 1 µg/mL
  MIC90: 2 µg/mL
Fusobacterium nucleatum [4]
  MIC50: 0.125 µg/mL
  MIC90: 2 µg/mL
[5]
  MIC50: 0.5 µg/mL
  MIC90: 1 µg/mL
Fusobacterium nucleatum [6]
  MIC: 1 µg/mL
[7]
  MIC: 0.03 µg/mL
Fusobacterium sp.
  MIC50: 0.125 µg/mL
  MIC90: 2 µg/mL
Bacteroides uniformis [8]
  MIC50: 1 µg/mL
  MIC90: 4 µg/mL
[9]
  MIC50: 1 µg/mL
  MIC90: 4 µg/mL
[10]
  MIC: 0.03 µg/mL
Atopobium parvulum
  MIC: 0.25 µg/mL
Parvimonas micra
  MIC50: 0.125 µg/mL
  MIC90: 0.125 µg/mL
Bacteroides stercoris
  MIC50: 1 µg/mL
  MIC90: 4 µg/mL
[11]
  MIC: 0.25 µg/mL
[12]
  MIC: 0.25 µg/mL
Bacteroides fragilis [13]
  MIC: 0.25 µg/mL
Eggerthella lenta [14]
  MIC: 2 µg/mL
Odoribacter splanchnicus
  MIC50: 1 µg/mL
  MIC90: 4 µg/mL
Bacteroides fragilis [15]
  MIC50: 0.25 µg/mL
  MIC90: 8 µg/mL
[16]
  MIC: 0.25 µg/mL
Bacteroides caccae
  MIC50: 1 µg/mL
  MIC90: 4 µg/mL
Porphyromonas gingivalis
  MIC50: 0.06 µg/mL
  MIC90: 0.06 µg/mL
Gemella morbillorum
  MIC: ≤ 0.015 µg/mL
[17]
  MIC: 1 µg/mL
[18]
  MIC: 0.125 µg/mL
Porphyromonas uenonis
  MIC50: 0.06 µg/mL
  MIC90: 0.06 µg/mL
Bifidobacterium breve
  MIC: 0.5 µg/mL
Clostridioides difficile
  MIC50: 4 µg/mL
  MIC90: 8 µg/mL
[19]
  MIC: 0.03 µg/mL
Clostridium perfringens
  MIC: 0.03 µg/mL
Bacteroides uniformis [20]
  MIC: 0.25 µg/mL
[21]
  MIC50: 0.03 µg/mL
  MIC90: 0.06 µg/mL
[22]
  MIC: 0.125 µg/mL
Lactobacillus brevis
  MIC: 0.03 µg/mL
[23]
  MIC50: 0.5 µg/mL
  MIC90: 2 µg/mL
[24]
  MIC: 0.06 µg/mL
[25]
  MIC50: 0.06 µg/mL
  MIC90: 0.06 µg/mL
[26]
  MIC50: 0.125 µg/mL
  MIC90: 1 µg/mL
Eubacterium limosum
  MIC50: 1 µg/mL
  MIC90: 2 µg/mL
Prevotella denticola
  MIC: 0.06 µg/mL
Finegoldia magna
  MIC50: 0.25 µg/mL
  MIC90: 0.5 µg/mL
Prevotella oris
  MIC: 0.06 µg/mL
[27]
  MIC: 0.5 µg/mL
[28]
  MIC50: 0.125 µg/mL
  MIC90: 0.25 µg/mL

## C[C@@H](O)[C@H]1C(=O)N2C(C(=O)O)=C(S[C@H]3C[C@@H](C(=O)N4CC[C@H](NC(=O)CNC(=N)N)C4)N(C)C3)[C@H](C)[C@H]12 [TOMOPENEM]
Bacteroides fragilis [1]
  MIC: 4 µg/mL
[2]
  MIC50: ≤ 0.015 µg/mL
  MIC90: 0.5 µg/mL
Eggerthella lenta [3]
  MIC50: 0.5 µg/mL
  MIC90: 0.5 µg/mL
Fusobacterium nucleatum [4]
  MIC50: ≤ 0.015 µg/mL
  MIC90: 0.5 µg/mL
[5]
  MIC50: 0.125 µg/mL
  MIC90: 0.5 µg/mL
Fusobacterium nucleatum [6]
  MIC: 2 µg/mL
[7]
  MIC: ≤ 0.015 µg/mL
Fusobacterium sp.
  MIC50: ≤ 0.015 µg/mL
  MIC90: 0.5 µg/mL
Bacteroides uniformis [8]
  MIC50: 0.5 µg/mL
  MIC90: 4 µg/mL
[9]
  MIC50: 0.5 µg/mL
  MIC90: 4 µg/mL
[10]
  MIC: 0.125 µg/mL
Atopobium parvulum
  MIC: 0.5 µg/mL
Parvimonas micra
  MIC50: 0.125 µg/mL
  MIC90: 0.125 µg/mL
Bacteroides stercoris
  MIC50: 0.5 µg/mL
  MIC90: 4 µg/mL
[11]
  MIC: 0.125 µg/mL
[12]
  MIC: 0.125 µg/mL
Bacteroides fragilis [13]
  MIC: 0.25 µg/mL
Eggerthella lenta [14]
  MIC: 0.5 µg/mL
Odoribacter splanchnicus
  MIC50: 0.5 µg/mL
  MIC90: 4 µg/mL
Bacteroides fragilis [15]
  MIC50: 0.25 µg/mL
  MIC90: 1 µg/mL
[16]
  MIC: 0.03 µg/mL
Bacteroides caccae
  MIC50: 0.5 µg/mL
  MIC90: 4 µg/mL
Porphyromonas gingivalis
  MIC50: 0.03 µg/mL
  MIC90: 0.06 µg/mL
Gemella morbillorum
  MIC: 0.03 µg/mL
[17]
  MIC: 0.5 µg/mL
[18]
  MIC: 0.03 µg/mL
Porphyromonas uenonis
  MIC50: 0.03 µg/mL
  MIC90: 0.06 µg/mL
Bifidobacterium breve
  MIC: 1 µg/mL
Clostridioides difficile
  MIC50: 1 µg/mL
  MIC90: 2 µg/mL
[19]
  MIC: ≤ 0.015 µg/mL
Clostridium perfringens
  MIC: 0.03 µg/mL
Bacteroides uniformis [20]
  MIC: 0.25 µg/mL
[21]
  MIC50: ≤ 0.015 µg/mL
  MIC90: 0.06 µg/mL
[22]
  MIC: 0.125 µg/mL
Lactobacillus brevis
  MIC: 0.25 µg/mL
[23]
  MIC50: 0.5 µg/mL
  MIC90: 2 µg/mL
[24]
  MIC: 0.03 µg/mL
[25]
  MIC50: 0.03 µg/mL
  MIC90: 0.06 µg/mL
[26]
  MIC50: 0.5 µg/mL
  MIC90: 4 µg/mL
Eubacterium limosum
  MIC50: 0.5 µg/mL
  MIC90: 0.5 µg/mL
Prevotella denticola
  MIC: 0.06 µg/mL
Finegoldia magna
  MIC50: 0.06 µg/mL
  MIC90: 0.125 µg/mL
Prevotella oris
  MIC: 0.125 µg/mL
[27]
  MIC: 0.25 µg/mL
[28]
  MIC50: 0.125 µg/mL
  MIC90: 0.5 µg/mL
